Data from patent publication US8865622B2, “Use of active ingredients for controlling nematodes in nematode-resistant crops” (priority 2010, dated 2014).

B1: AXMI031: genetically modified Jack soybean variety known to produce a nematicidal protein (gene axmi031, Table 1) (protein, listed as Bacillus thuringiensis)
chain: MNMNNTKLNARALPSFIDYFNGIYGFATGIKDIMNMIFKTDTGGDLTLDEILKNQQLLNEISGKLDGVNGSLNDLIAQGNLNTELSKEILKIANEQNQVLNDVNNKLDAINTMLNIYLPKITSMLSDVMKQNYALSLQIEYLSRQLQEISDKLDVINLNVLINSTLTEITPSYQRIKYVNEKFDKLTFATESTLRAKQGIFNEDSFDNNTLENLTDLAELAKSITKNDVDSFEFYLHTFHDVLIGNNLFGRSALKTASELITKDEIKTSGSEIGKVYSFLIVLTSLQAKAFLTLTTCRKLLGLSDIDYTSIMNEHLNNEKNEFRDNILPALSNKFSNPSYAKTIGSDNYAKVILESEPGYALVGFEIINDPIPVLKAYKAKLKQNYQVDNQSLSEIVYLDIDKLFCPENSEQKYYTKNLTFPDGYVITKITFEKKLNNLIYEATANFYDPSTGDIDLNKKQVESTFPQTDYITMDIGDDDGIYMPLGVISETFLTPINSFGLEVDAKSKTLTLKCKSYLREYLLESDLKNKETGLIAPPNVFISNVVKNWDIEEDSLEPWVANNKNAYVDNTGGIERSKALFTQGDGEFSQFIGDKLKPNTDYIIQYTVKGKPAIYLKNKSTGYITYEDTNGNSEEFQTIAVKFTSETDLSQTHLVFKSQNGYEAWGDNFIILEAKLFETPESPELIKFNDWERFGTTYITGNELRIDHSRGGYFRQSLNIDSYSTYDLSFSFSGLWAKVIVKNSRGVVLFEKVKNNGSSYEDISESFTTASNKDGFFIELTAERTSSTFHSFRDISIKEKIE
B2: AXN2: genetically modified Jack soybean variety known to produce a nematicidal protein (gene axn2, Table 1) (protein)
chain: MASAANAGQLGNLPGVTSMGMGYDVNGLYASPESLLGQPLFDFGGELDSIEIEGRSYTFPRSMHVHTYFHSDFKQDVSKEIEEYREKMSQHVGVSGRYKLFSASLSVDFTTTDQQLTEITYSSTREAHVLWYISLPGAATLRSMLRRDFRDDLNNPNMPAMELFKRYGPYYISEAAVGGRLDYSAASKTLKMDSSQSLSTTAEMSYKALVGEIKIEHGSEMEKQVNSFRSNSTIRLTATGGKPGMTDRILHGPDSQQAFSQWAESLLDYATLMDFSTESLQPIWALADKPERRVELEDAFPEFMKQSQQSIPKVDKVLLMDARPPMVKAGEDSGSGASEDLAVFNPSTSNGYKMVGQFGQRNHASVADGHAPIFKDLFDLGVLKAPVGWQRVWDDAGSGKSKDYACWRAIPPQGYRALGDVMMLATSGYNPPNLPDYVCVHQSLCADVQTLQNRVWWDKGTGARKDVSLWQPGAAGAVASSCFAGVPNYNNPPNSGDIERLRGSIACVKTSAIASM
modifications: AXMI-205(trun20)

What was measured:
[1] = test system: SCN (inbred colony OP50, able to overcome PI 88788 resistance); experiment: SCN cyst count on soybean plants grown from treated seed, pot test in germination chamber; assay type: in vivo; details: for reduction of SCN populations: nontransgenic Jack plants, cysts counted two months after planting; for percent reduction of average number of cysts compared to Jack: base (color/coating) treatment only, trait effect
Procedure: (§1) Two tests were planted with Jack (an SCN resistant soybean variety with PI 88788 resistance) and two genetically modified Jack varieties (AXN2 and AXMI031) known to produce a nematicidal protein. The seed were treated with a color/coating base or the same base plus one of two different rates of fluopyram (experiment 1 used 0.075 mg fluopyram/seed and experiment 2 used 0.15 mg fluopyram/seed). The SCN used to inoculate both tests were collected from an inbred colony (OP50) with the ability to overcome PI 88788 resistance.
(§2) Tests were conducted as non-randomized blocks with a minimum of 10 replicates. Seed were planted in individual 4″ clay pots with coarse sand and inoculated with approximately 20,000 OP50 juveniles in ten equal inoculations beginning at planting and again approximately every third day. Plants were maintained in a germination chamber. Blocks were rotated approximately every third day to minimize potential influence of environmental variance. Two months after planting, plants were harvested and cysts were collected and counted to evaluate the efficacy of the nematicide and traits, both individually and in combination with each other.

[2] = test system: Jack soybean plants (nontransgenic, AXN2, AXMI031); experiment: Plant height of soybean plants in the SCN pot test; assay type: in vivo
Procedure: as §1, §2

Molecule | reduction of SCN populations ([1]; first experiment, 0.075 mg fluopyram/seed) [%] | approximate reduction (SCN) provided by fluopyram ([1]; high rate (0.15 mg/seed), transgenic Axmi031 plants) [%] | approximate reduction (SCN) provided by fluopyram ([1]; high rate (0.15 mg/seed), transgenic Axn2 plants) [%] | approximate reduction (SCN) provided by fluopyram ([1]; low rate (0.075 mg/seed), transgenic Axmi031 plants) [%] | approximate reduction (SCN) provided by fluopyram ([1]; low rate (0.075 mg/seed), transgenic Axn2 plants) [%] | reduction of SCN populations ([1]; second experiment, 0.15 mg fluopyram/seed) [%] | effect on average plant height ([2]; both genetically modified varieties (Axn2, Axmi031), both experiments (0.075 and 0.15 mg/seed)) | effect on average plant height ([2]; nontransgenic control Jack plants, both experiments) | percent reduction of average number of cysts compared to Jack ([1]; first experiment) [%] | percent reduction of average number of cysts compared to Jack ([1]; second experiment) [%]
O=C(NCCc1ncc(C(F)(F)F)cc1Cl)c1ccccc1C(F)(F)F [fluopyram, N-{2-[3-chloro-5-(trifluoromethyl)-2-pridinyl]ethyl}-2-(trifluoromethyl)benzamide] | 26 | ~40 | ~40 | ~20 | ~20 | 43 | increased average plant height | not having an effect | – | –
B1 | – | – | – | – | – | – | – | – | 92 | 88
B2 | – | – | – | – | – | – | – | – | 20 | 43
